Experimental data published in PubChem BioAssay AID248 (DTP/NCI, 2004).
“And” between values parts separate entries of the source, which are not always exact repeats. Equal entries are not always repeated. Inconclusive results and toxic doses are left out. Rule as the data show it: active = T/C of 150% or more; inactive = T/C below 125%.

System: L1210 leukemia ip in BDF1 mice, survival T/C
Assay: NCI In Vivo Anticancer Drug Screen. Data for tumor model L1210 Leukemia (intraperitoneal) in B6D2F1 (BDF1) mice
Settings: endpoint: mean survival time, higher = longer survival
Outline: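 Value reflects the ratio of survival in compound-treated mice to survival in vehicle-treated controls, with both groups carrying the same transplanted tumor.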

[1] = dose: 100.0 mg/kg/injection, schedule: Q01DX009 (ip), vehicle: saline with Tween-80
[2] = dose: 100.0 mg/kg/injection, schedule: Q04DX003 (ip), vehicle: saline with Tween-80
[3] = dose: 200.0 mg/kg/injection, schedule: Q01DX009 (ip), vehicle: saline with Tween-80
[4] = dose: 200.0 mg/kg/injection, schedule: Q04DX003 (ip), vehicle: saline with Tween-80
[5] = dose: 400.0 mg/kg/injection, schedule: Q04DX003 (ip), vehicle: saline with Tween-80
[6] = dose: 50.0 mg/kg/injection, schedule: Q01DX001 (ip), vehicle: saline
[7] = dose: 100.0 mg/kg/injection, schedule: Q01DX001 (ip), vehicle: saline
[8] = dose: 200.0 mg/kg/injection, schedule: Q01DX001 (ip), vehicle: saline
[9] = dose: 400.0 mg/kg/injection, schedule: Q01DX001 (ip), vehicle: saline
[10] = dose: 50.0 mg/kg/injection, schedule: Q04DX002 (ip), vehicle: saline with Tween-80
[11] = dose: 50.0 mg/kg/injection, schedule: Q01DX009 (ip), vehicle: Klucel (hydroxypropylcellulose) (HPC)
[12] = dose: 100.0 mg/kg/injection, schedule: Q01DX009 (ip), vehicle: Klucel (hydroxypropylcellulose) (HPC)
[13] = dose: 200.0 mg/kg/injection, schedule: Q01DX009 (ip), vehicle: Klucel (hydroxypropylcellulose) (HPC)
[14] = dose: 50.0 mg/kg/injection, schedule: Q01DX009 (ip), vehicle: saline with Tween-80
[15] = dose: 100.0 mg/kg/injection, schedule: Q04DX003 (ip), vehicle: saline
[16] = dose: 200.0 mg/kg/injection, schedule: Q04DX003 (ip), vehicle: saline
[17] = dose: 400.0 mg/kg/injection, schedule: Q04DX003 (ip), vehicle: saline

Measured: T/C

[CH3][Pb]([CH3])([CH3])[O]P(=O)(O)c1ccccc1
inactive: dose: 3.12 mg/kg/injection, schedule: Q04DX002 (ip), vehicle: saline 98 % of control | dose: 6.25 mg/kg/injection, schedule: Q04DX002 (ip), vehicle: saline 103 % of control | dose: 12.5 mg/kg/injection, schedule: Q04DX002 (ip), vehicle: saline 98 % of control and 101 % of control

CN(C(=O)CCCO)c1cc([N+](=O)[O-])ccc1OCc1ccccc1
inactive: [1] 93 % of control | [2] 92 % of control | [3] 93 % of control | [4] 101 % of control | dose: 400.0 mg/kg/injection, schedule: Q01DX009 (ip), vehicle: saline with Tween-80 90 % of control | [5] 92 % of control

OB(O)c1ccccc1
inactive: dose: 100.0 mg/kg/injection, schedule: Q01DX009 (ip), vehicle: gum acacia 105 % of control | dose: 200.0 mg/kg/injection, schedule: Q01DX009 (ip), vehicle: gum acacia 99 % of control

CCCn1c(N)cc(=O)[nH]c1=S
inactive: [6] 100 % of control | [7] 96 % of control | [8] 100 % of control | [9] 100 % of control

C[P+]1(C)CC=C2CCCCC21 (centres undefined)
inactive: dose: 12.5 mg/kg/injection, schedule: Q04DX002 (ip), vehicle: saline with Tween-80 100 % of control | dose: 25.0 mg/kg/injection, schedule: Q04DX002 (ip), vehicle: saline with Tween-80 98 % of control | [10] 98 % of control

c1ccc(CC2NC2c2ccccc2)cc1 (centres undefined)
inactive: dose: 100.0 mg/kg/injection, schedule: Q04DX002 (ip), vehicle: Klucel (hydroxypropylcellulose) (HPC) 92 % of control | dose: 100.0 mg/kg/injection, schedule: Q04DX003 (ip), vehicle: Klucel (hydroxypropylcellulose) (HPC) 96 % of control | dose: 200.0 mg/kg/injection, schedule: Q04DX002 (ip), vehicle: Klucel (hydroxypropylcellulose) (HPC) 98 % of control | dose: 200.0 mg/kg/injection, schedule: Q04DX003 (ip), vehicle: Klucel (hydroxypropylcellulose) (HPC) 96 % of control | dose: 400.0 mg/kg/injection, schedule: Q04DX003 (ip), vehicle: Klucel (hydroxypropylcellulose) (HPC) 103 % of control

O=C1C=C(O)c2cc(Br)ccc2C1=O.[Ag]
inactive: dose: 100.0 mg/kg/injection, schedule: Q04DX002 (ip), vehicle: saline 105 % of control

CS(=O)(=O)OCCN(CCOS(C)(=O)=O)c1ccc(/C=N/Nc2ncnc3nc[nH]c23)cc1
inactive: dose: 12.5 mg/kg/injection, schedule: Q01DX009 (ip), vehicle: saline 124 % of control | [6] 119 % of control | dose: 89.0 mg/kg/injection, schedule: Q01DX001 (ip), vehicle: other 105 % of control | [7] 107 % of control | dose: 100.0 mg/kg/injection, schedule: Q01DX009 (ip), vehicle: saline 98 % of control | dose: 133.0 mg/kg/injection, schedule: Q01DX001 (ip), vehicle: other 110 % of control | dose: 200.0 mg/kg/injection, schedule: Q01DX001 (ip), vehicle: other 103 % of control | [8] 119 % of control | dose: 300.0 mg/kg/injection, schedule: Q01DX001 (ip), vehicle: other 114 % of control | [9] 113 % of control

CC(=O)Oc1c(C(C)(C)C)cc(C)cc1C(C)(C)C
inactive: [11] 100 % of control | [12] 100 % of control | [13] 103 % of control

Cc1cc(C)c(N)c(C)n1
inactive: dose: 12.5 mg/kg/injection, schedule: Q04DX003 (ip), vehicle: Klucel (hydroxypropylcellulose) (HPC) 95 % of control | dose: 25.0 mg/kg/injection, schedule: Q04DX003 (ip), vehicle: Klucel (hydroxypropylcellulose) (HPC) 97 % of control | dose: 50.0 mg/kg/injection, schedule: Q04DX003 (ip), vehicle: Klucel (hydroxypropylcellulose) (HPC) 93 % of control

CCN(CC)CCNc1ccc(N=Nc2ccc(SC)cc2)c2ccccc12
inactive: dose: 6.25 mg/kg/injection, schedule: Q01DX015 (ip), vehicle: carboxymethylcellulose (CMC) 91 % of control | dose: 12.5 mg/kg/injection, schedule: Q01DX015 (ip), vehicle: carboxymethylcellulose (CMC) 93 % of control | dose: 25.0 mg/kg/injection, schedule: Q01DX015 (ip), vehicle: carboxymethylcellulose (CMC) 86 % of control | [14] 94 % of control | dose: 50.0 mg/kg/injection, schedule: Q01DX015 (ip), vehicle: carboxymethylcellulose (CMC) 87 % of control | dose: 50.0 mg/kg/injection, schedule: Q04DX003 (ip), vehicle: saline 96 % of control | [1] 103 % of control | [15] 89 % of control | [16] 88 % of control

CCCC1(CCC)c2ccccc2C(CCl)(OCC)c2ccccc21
inactive: dose: 100.0 mg/kg/injection, schedule: Q01DX009 (ip), vehicle: other 91 % of control | dose: 100.0 mg/kg/injection, schedule: Q04DX003 (ip), vehicle: other 100 % of control | dose: 200.0 mg/kg/injection, schedule: Q01DX009 (ip), vehicle: other 88 % of control | dose: 200.0 mg/kg/injection, schedule: Q04DX003 (ip), vehicle: other 103 % of control | dose: 400.0 mg/kg/injection, schedule: Q01DX009 (ip), vehicle: other 92 % of control | dose: 400.0 mg/kg/injection, schedule: Q04DX003 (ip), vehicle: other 95 % of control

CC(C(O)c1ccccc1)[N+](=O)[O-] (centres undefined)
inactive: [2] 100 % of control | [4] 95 % of control | [5] 101 % of control

O=C(O)CC(Sc1ccccc1)c1ccccc1 (centres undefined)
inactive: [11] 98 % of control | [12] 101 % of control | dose: 177.0 mg/kg/injection, schedule: Q04DX002 (ip), vehicle: saline 94 % of control | [13] 96 % of control | dose: 266.0 mg/kg/injection, schedule: Q04DX002 (ip), vehicle: saline 94 % of control | dose: 400.0 mg/kg/injection, schedule: Q04DX002 (ip), vehicle: saline 105 % of control | dose: 600.0 mg/kg/injection, schedule: Q04DX002 (ip), vehicle: saline 103 % of control

Cc1ccc(N=Nc2ccc(C)cc2NC(=O)/C=C/c2ccccc2)cc1
inactive: [14] 96 % of control | [1] 90 % of control | [3] 86 % of control

CS(=O)(=O)OCCNc1ccc([N+](=O)[O-])cc1
inactive: dose: 1.0 mg/kg/injection, schedule: Q01DX001 (ip), vehicle: saline 101 % of control | dose: 2.0 mg/kg/injection, schedule: Q01DX001 (ip), vehicle: saline 101 % of control | dose: 4.0 mg/kg/injection, schedule: Q01DX001 (ip), vehicle: saline 98 % of control | dose: 8.0 mg/kg/injection, schedule: Q01DX001 (ip), vehicle: saline 104 % of control | dose: 38.0 mg/kg/injection, schedule: Q01DX015 (ip), vehicle: saline 98 % of control | dose: 57.0 mg/kg/injection, schedule: Q01DX015 (ip), vehicle: saline 95 % of control | dose: 85.0 mg/kg/injection, schedule: Q01DX015 (ip), vehicle: saline 93 % of control

Nc1ncnc(N)c1NC(=O)c1cccc(F)c1
inactive: dose: 100.0 mg/kg/injection, schedule: Q01DX001 (ip), vehicle: saline with Tween-80 106 % of control | dose: 200.0 mg/kg/injection, schedule: Q01DX001 (ip), vehicle: saline with Tween-80 101 % of control | dose: 400.0 mg/kg/injection, schedule: Q01DX001 (ip), vehicle: saline with Tween-80 102 % of control

OC(c1ccc(Br)cc1)C(O)c1ccc(Br)cc1 (centres undefined)
inactive: [10] 104 % of control | dose: 100.0 mg/kg/injection, schedule: Q04DX002 (ip), vehicle: saline with Tween-80 104 % of control | dose: 200.0 mg/kg/injection, schedule: Q04DX002 (ip), vehicle: saline with Tween-80 97 % of control

[N-]=[N+]=NC(=O)C1(Br)CCC2c3ccccc3C([N+](=O)[O-])(C1)c1ccccc12 (centres undefined)
inactive: [15] 101 % of control | [16] 98 % of control | [17] 93 % of control

CCOC(=O)/C(Cc1ccc2c(c1)OCO2)=N\O
inactive: [15] 96 % of control | [16] 97 % of control | [17] 103 % of control

S=C(NCc1ccco1)Nc1ccccc1Cl
inactive: [12] 100 % of control | [13] 93 % of control
